Measured values reported in the supplement of paper PMC10307832.

Legend:
Test in all cases: relative viability (nuclei count vs DMSO), 5 days (fraction); higher = more cells survive
Mirin + Navitoclax = compound: N=C1NC(=O)/C(=C/c2ccc(O)cc2)S1 [Mirin] + CC1(C)CCC(c2ccc(Cl)cc2)=C(CN2CCN(c3ccc(C(=O)NS(=O)(=O)c4ccc(N[C@H](CCN5CCOCC5)CSc5ccccc5)c(S(=O)(=O)C(F)(F)F)c4)cc3)CC2)C1 [Navitoclax] (partner 0.5 µM)
Procedure, shortened: (§1)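 Lung cancer cell lines were pin-tool dosed in 1536-well plates on the day after seeding, with either a lone drug or a fixed anchor-drug dose plus five library-drug doses (not always all listed) in √10 steps. Nuclei were counted on 4× images after 5 days. Relative viability is the ratio of treated-well to vehicle-well nuclei counts, with each value a median of duplicate plates.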

Mirin + Olaparib = compound: N=C1NC(=O)/C(=C/c2ccc(O)cc2)S1 [Mirin] + O=C(c1cc(Cc2n[nH]c(=O)c3ccccc23)ccc1F)N1CCN(C(=O)C2CC2)CC1 [Olaparib] (partner 8 µM)
Procedure, shortened: as §1

[1] = compound: CCC1=CN=CN=C1N2CCN(CC2)CC3=NC4=C(N3)C=C(C=C4)C(F)(F)F + O=C(CCCCCCC(=O)Nc1ccccc1)NO [Vorinostat] (partner 1 µM)
Procedure, shortened: as §1

[2] = compound: CCC1=CN=CN=C1N2CCN(CC2)CC3=NC4=C(N3)C=C(C=C4)C(F)(F)F + C[C@@H](Oc1cc(-c2cnn(C3CCNCC3)c2)cnc1N)c1c(Cl)ccc(F)c1Cl [Crizotinib] (partner 1 µM)
Procedure, shortened: as §1

With PC-14 the relative viability (Mirin + Navitoclax; first compound 0.25 µM) was 1.04, the relative viability (Mirin + Navitoclax; first compound 0.7906 µM) was 1.04 and the relative viability (Mirin + Navitoclax; first compound 2.5 µM) was 1.08. It also gave a relative viability (Mirin + Navitoclax; first compound 7.906 µM) of 1.03, a relative viability (Mirin + Navitoclax; first compound 25 µM) of 1.17 and a relative viability (Mirin + Olaparib; first compound 0.25 µM) of 0.25. It also gave a relative viability (Mirin + Olaparib; first compound 0.7906 µM) of 0.34, a relative viability (Mirin + Olaparib; first compound 2.5 µM) of 0.313 and a relative viability (Mirin + Olaparib; first compound 7.906 µM) of 0.308. It also gave a relative viability (Mirin + Olaparib; first compound 25 µM) of 0.271, a relative viability ([1]; first compound 0.04 µM) of 0.764 and a relative viability ([1]; first compound 0.1265 µM) of 0.756. It also gave a relative viability ([1]; first compound 0.4 µM) of 0.688, a relative viability ([1]; first compound 1.265 µM) of 0.691 and a relative viability ([1]; first compound 4 µM) of 0.657. It also gave a relative viability ([2]; first compound 0.04 µM) of 1.02, a relative viability ([2]; first compound 0.1265 µM) of 0.781 and a relative viability ([2]; first compound 0.4 µM) of 0.976. It also gave a relative viability ([2]; first compound 1.265 µM) of 0.915 and a relative viability ([2]; first compound 4 µM) of 1.06.

In the case of NCI-H2087, the relative viability (Mirin + Navitoclax; first compound 0.25 µM) is reported as 1.01, the relative viability (Mirin + Navitoclax; first compound 0.7906 µM) is reported as 1.21 and the relative viability (Mirin + Navitoclax; first compound 2.5 µM) is reported as 0.944. It also gave a relative viability (Mirin + Navitoclax; first compound 7.906 µM) of 1.27, a relative viability (Mirin + Navitoclax; first compound 25 µM) of 1.03 and a relative viability (Mirin + Olaparib; first compound 0.25 µM) of 0.602. The relative viability (Mirin + Olaparib; first compound 0.7906 µM) was 0.559, the relative viability (Mirin + Olaparib; first compound 2.5 µM) was 0.611 and the relative viability (Mirin + Olaparib; first compound 7.906 µM) was 0.671. For the same cell line, the relative viability (Mirin + Olaparib; first compound 25 µM) was 0.498, the relative viability ([1]; first compound 0.04 µM) was 0.929 and the relative viability ([1]; first compound 0.1265 µM) was 0.881. For the same cell line, the relative viability ([1]; first compound 0.4 µM) was 0.707, the relative viability ([1]; first compound 1.265 µM) was 0.659 and the relative viability ([1]; first compound 4 µM) was 0.638. It also gave a relative viability ([2]; first compound 0.04 µM) of 0.897, a relative viability ([2]; first compound 0.1265 µM) of 0.898 and a relative viability ([2]; first compound 0.4 µM) of 0.921. The relative viability ([2]; first compound 1.265 µM) was 0.809 and the relative viability ([2]; first compound 4 µM) was 0.846.

Cell Line A549 has a relative viability (Mirin + Navitoclax; first compound 0.25 µM) of 1.09, a relative viability (Mirin + Navitoclax; first compound 0.7906 µM) of 1.38 and a relative viability (Mirin + Navitoclax; first compound 2.5 µM) of 1.08. The relative viability (Mirin + Navitoclax; first compound 7.906 µM) was 1.32, the relative viability (Mirin + Navitoclax; first compound 25 µM) was 1.31 and the relative viability (Mirin + Olaparib; first compound 0.25 µM) was 0.342. The relative viability (Mirin + Olaparib; first compound 0.7906 µM) was 0.229, the relative viability (Mirin + Olaparib; first compound 2.5 µM) was 0.333 and the relative viability (Mirin + Olaparib; first compound 7.906 µM) was 0.243. It also gave a relative viability (Mirin + Olaparib; first compound 25 µM) of 0.367, a relative viability ([2]; first compound 0.04 µM) of 0.734 and a relative viability ([2]; first compound 0.1265 µM) of 0.801. It also gave a relative viability ([2]; first compound 0.4 µM) of 0.816, a relative viability ([2]; first compound 1.265 µM) of 0.829 and a relative viability ([2]; first compound 4 µM) of 0.827.

In the case of NCI-H2342, the relative viability (Mirin + Olaparib; first compound 0.25 µM) is reported as 0.441, the relative viability (Mirin + Olaparib; first compound 0.7906 µM) is reported as 0.442 and the relative viability (Mirin + Olaparib; first compound 2.5 µM) is reported as 0.427. It also gave a relative viability (Mirin + Olaparib; first compound 25 µM) of 0.368, a relative viability ([1]; first compound 0.04 µM) of 0.629 and a relative viability ([1]; first compound 0.1265 µM) of 0.736. For the same cell line, the relative viability ([1]; first compound 0.4 µM) was 0.744, the relative viability ([1]; first compound 1.265 µM) was 0.531 and the relative viability ([1]; first compound 4 µM) was 0.565.

In the case of Calu-6, the relative viability (Mirin + Navitoclax; first compound 0.25 µM) is reported as 0.879, the relative viability (Mirin + Navitoclax; first compound 0.7906 µM) is reported as 1 and the relative viability (Mirin + Navitoclax; first compound 2.5 µM) is reported as 0.839. It also gave a relative viability (Mirin + Navitoclax; first compound 7.906 µM) of 0.806, a relative viability (Mirin + Navitoclax; first compound 25 µM) of 0.794 and a relative viability (Mirin + Olaparib; first compound 0.25 µM) of 0.554. It also gave a relative viability (Mirin + Olaparib; first compound 0.7906 µM) of 0.673, a relative viability (Mirin + Olaparib; first compound 2.5 µM) of 0.618 and a relative viability (Mirin + Olaparib; first compound 7.906 µM) of 0.397. The relative viability (Mirin + Olaparib; first compound 25 µM) was 0.482, the relative viability ([2]; first compound 0.04 µM) was 0.742 and the relative viability ([2]; first compound 0.1265 µM) was 0.707. The relative viability ([2]; first compound 0.4 µM) was 0.832, the relative viability ([2]; first compound 1.265 µM) was 0.905 and the relative viability ([2]; first compound 4 µM) was 0.982.

For LCLC-103H, the relative viability (Mirin + Olaparib; first compound 0.25 µM) was 0.703, the relative viability (Mirin + Olaparib; first compound 0.7906 µM) was 0.892 and the relative viability (Mirin + Olaparib; first compound 2.5 µM) was 0.758. For the same cell line, the relative viability (Mirin + Olaparib; first compound 7.906 µM) was 0.847, the relative viability (Mirin + Olaparib; first compound 25 µM) was 0.89 and the relative viability ([1]; first compound 0.04 µM) was 0.797. For the same cell line, the relative viability ([1]; first compound 0.1265 µM) was 0.685, the relative viability ([1]; first compound 0.4 µM) was 0.746 and the relative viability ([1]; first compound 1.265 µM) was 0.668. For the same cell line, the relative viability ([1]; first compound 4 µM) was 0.717, the relative viability ([2]; first compound 0.04 µM) was 1.09 and the relative viability ([2]; first compound 0.1265 µM) was 1.01. The relative viability ([2]; first compound 0.4 µM) was 1.04, the relative viability ([2]; first compound 1.265 µM) was 1 and the relative viability ([2]; first compound 4 µM) was 1.16.

With NCI-H1792 the relative viability (Mirin + Navitoclax; first compound 0.25 µM) was 0.611, the relative viability (Mirin + Navitoclax; first compound 0.7906 µM) was 0.529 and the relative viability (Mirin + Navitoclax; first compound 2.5 µM) was 0.68. It also gave a relative viability (Mirin + Navitoclax; first compound 7.906 µM) of 0.583, a relative viability (Mirin + Navitoclax; first compound 25 µM) of 0.695 and a relative viability (Mirin + Olaparib; first compound 0.25 µM) of 0.533. The relative viability (Mirin + Olaparib; first compound 0.7906 µM) was 0.392, the relative viability (Mirin + Olaparib; first compound 2.5 µM) was 0.484 and the relative viability (Mirin + Olaparib; first compound 7.906 µM) was 0.383. It also gave a relative viability (Mirin + Olaparib; first compound 25 µM) of 0.495, a relative viability ([2]; first compound 0.04 µM) of 0.881 and a relative viability ([2]; first compound 0.1265 µM) of 0.875. The relative viability ([2]; first compound 0.4 µM) was 0.94, the relative viability ([2]; first compound 1.265 µM) was 0.958 and the relative viability ([2]; first compound 4 µM) was 1.01.

NCI-H1563 gave a relative viability ([2]; first compound 0.04 µM) of 0.822, a relative viability ([2]; first compound 0.1265 µM) of 0.847 and a relative viability ([2]; first compound 0.4 µM) of 0.928. For the same cell line, the relative viability ([2]; first compound 1.265 µM) was 0.962 and the relative viability ([2]; first compound 4 µM) was 1.09.

NCI-H522 was tested, and the relative viability (Mirin + Olaparib; first compound 0.25 µM) was 0.583, the relative viability (Mirin + Olaparib; first compound 0.7906 µM) was 0.665 and the relative viability (Mirin + Olaparib; first compound 2.5 µM) was 0.624. The relative viability (Mirin + Olaparib; first compound 7.906 µM) was 0.719, the relative viability (Mirin + Olaparib; first compound 25 µM) was 0.508 and the relative viability ([1]; first compound 0.04 µM) was 0.951. It also gave a relative viability ([1]; first compound 0.1265 µM) of 1.02, a relative viability ([1]; first compound 0.4 µM) of 0.75 and a relative viability ([1]; first compound 1.265 µM) of 0.771. For the same cell line, the relative viability ([1]; first compound 4 µM) was 0.973.
